This series in a line: Stability of tablets / hydrochlorothiazide degradation depending on excipients. The series is classed as physicochemical. An excerpt:
Under certain conditions, hydrochlorothiazide can hydrolyze to form, as by-product products, a free amine degradant and formaldehyde (D.S. Desai et al., International Journal of Phaxmaceutics, 107(2), 141-47 (1994)). The selection of excipients can impact the stability of hydrochlorothiazide. […] The aforementioned preferred compositions of the present invention containing irbesartan and hydrochlorothiazide are thus further advantageous since the excipients employed therein minimize or eliminate hydrochlorothiazide degradation.

Consider 1 compound from US6342247B1, “Pharmaceutical compositions containing irbesartan” (Sanofi-Synthelabo, priority 1995, dated 2002).

`NS(=O)(=O)c1cc2c(cc1Cl)NCNS2(=O)=O` [hydrochlorothiazide]: the degradation of hydrochlorothiazide entry (poloxamer in the composition) is listed as “increase the degradation”. Also, the stability of hydrochlorothiazide result (povidone as binder) is given as “formation of quantities of the free amine degradant” and the stability of hydrochlorothiazide result (pregelatinized starch as binder, compared with povidone) is listed as “greater stability”.
